Source: the NIST ThermoML archive (doi:10.1021/je100208e)
Numbers after ± are expanded uncertainties.

How the values were obtained:
[1] = Molar enthalpy of transition or fusion; settings: Crystal; DSC
[2] = for vapor or sublimation pressure: Knudsen effusion; for Normal melting temperature: DTA

c1ccc2cc3ccccc3cc2c1 [anthracene]
Settings | Molar enthalpy of transition or fusion [kcal/mol]
[1] | 6.65 ± 0.454

[2], Crystal
Settings | vapor or sublimation pressure [kPa]
300 K | 1.192e-06 ± 7e-08
305 K | 2.257e-06 ± 1.2e-07
310 K | 4.186e-06 ± 2.2e-07
315 K | 7.613e-06 ± 3.9e-07
320 K | 1.359e-05 ± 6.9e-07
325 K | 2.383e-05 ± 1.2e-06
330 K | 4.109e-05 ± 2.1e-06
335 K | 6.969e-05 ± 3.5e-06
340 K | 0.0001164 ± 5.8e-06
345 K | 0.0001915 ± 9.6e-06
350 K | 0.0003107 ± 1.6e-05
355 K | 0.0004972 ± 2.5e-05
360 K | 0.0007852 ± 3.9e-05
365 K | 0.001225 ± 6.1e-05
370 K | 0.001888 ± 9.4e-05
373 K | 0.002433 ± 0.00012

Settings | Normal melting temperature [°C]
[2], Crystal | 217 ± 1

c1cc2ccc3cccc4ccc(c1)c2c34 [pyrene]
Settings | Molar enthalpy of transition or fusion [kcal/mol]
[1] | 3.87 ± 0.263

[2], Crystal 1
Settings | vapor or sublimation pressure [kPa]
315 K | 4.79e-06 ± 2.5e-07
320 K | 8.55e-06 ± 4.4e-07
325 K | 1.499e-05 ± 7.6e-07
330 K | 2.584e-05 ± 1.3e-06
335 K | 4.382e-05 ± 2.2e-06
340 K | 7.317e-05 ± 3.7e-06
345 K | 0.0001204 ± 6e-06
350 K | 0.0001952 ± 9.8e-06
355 K | 0.0003124 ± 1.6e-05
360 K | 0.0004933 ± 2.5e-05
365 K | 0.0007693 ± 3.9e-05
370 K | 0.001185 ± 5.9e-05
375 K | 0.001806 ± 9.1e-05
378 K | 0.002312 ± 0.00012

Settings | Normal melting temperature [°C]
[2], Crystal | 151 ± 1
